Assay results reported in US20220008547A1, “Carrier Peptide Fragment and use Thereof” (TOAGOSEI CO., LTD, priority 2020, published 2022).
Non-standard residues stand in square brackets, D forms with d. No end group written: not given here. FAM = fluorescent dye label; Ahx = NCCCCCC(=O)O; βAla = NCCC(=O)O

Test system: HeLa cells
Assay: Evaluation of cell-penetrating function by flow cytometry (mean fluorescent intensity)
Type: cell-based, human
Conditions: for MFI (mean fluorescent intensity of measurement target cell populations): 10 μM final concentration, 20-hour incubation at 37° C., 0.5% DMSO, flow cytometer FL2, 10,000 cells
Experimental: HeLa cells (established cell lines derived from human cervical cancer cells) were used as eukaryotic cells, and cell-penetrating functions of three samples (constructs for introducing a foreign substance) obtained in Example 1 were examined
In this example, Examples 1 to 3 were set according to the kind of peptide used as shown below. In addition, as Examples 4 and 5, peptide-free groups were set. The following test was performed in a total of 5 categories. Here, the concentration described below was a final concentration during the following 20-hour incubation.
Here, in all of the examples, the concentration of DMSO was adjusted to 0.5% during the following 20-hour incubation. In addition, the number of test wells (n) in each of the above examples was set to 3.
HeLa cells were cultured using a mixed solution containing a 90% Eagle's MEM medium (containing 0.1% non-essential amino acid, 2 mM of L-glutamine, 1 mM of sodium pyruvate, and 1.5 g/L of sodium bicarbonate) and 10% serum (FBS: fetal bovine serum) as a culture solution.
The HeLa cells were subjected to a trypsin treatment with a 0.25% trypsin/EDTA solution at 37° C. for 3 minutes. After the above treatment, trypsin was inactivated using the culture solution. Centrifugation was performed and the centrifugal supernatant was removed. The cell pellet obtained by centrifugation was suspended in a fresh culture solution. A cell suspension (sample for introducing a foreign substance) having a cell concentration of about 1×10^5 cells/well was prepared from the culture solution, and 2 ml thereof was seeded in each well of a commercially available 6-well plate (commercially available from Iwaki). Then, the cells were cultured at 37° C. for 4 hours under 5% CO2 conditions, and adhesion of the seeded cells was confirmed.
Then, 1 ml of the culture supernatant was removed from the well after the culture for 4 hours, and a culture solution containing Sample 1 at a concentration of 20 μM was added. That is, the final sample concentration in the well was 10 μM.
The plate was then incubated at 37° C. for 20 hours under 5% CO2 conditions.
After such incubation for 20 hours, the cells were washed twice with PBS at 1 ml/well. Then, the cells in the wells were treated with a 0.25% trypsin/EDTA solution at 200 μL/well at 37° C. for 3 minutes. Then, a culture solution at 400 μL/well was additionally added and the cells were collected in the tube. Then, the wells were additionally washed with PBS at 600 μL/well, and the cells remaining in the wells were collected in the above tube. The tube was centrifuged at 4° C. for 5 minutes under 210×g conditions. The centrifugal supernatant was removed, and the cell pellet was suspended (washed) in 1 ml PBS, and centrifuged under the same conditions as above. This operation was repeated twice.
Then, the collected cells were analyzed using a flow cytometer. […]
Using the above flow cytometer, gating was performed based on forward scatter (FSC) and side scatter (SSC), and a gate was set for a measurement target cell population. Then, the fluorescent intensity of the cell population within such a gate was measured. The fluorescent intensity of 10,000 measurement target cells was measured for each measurement sample. […] The measurement results were analyzed using commercially available analysis software “FlowJo (registered trademark)” (commercially available from TreeStar), and a mean fluorescent intensity (MFI) of measurement target cell populations was obtained. […]

Substance | MFI (mean fluorescent intensity of measurement target cell populations) | cell permeability (comparison of MFI among samples) (10 μM, 20-hour incubation)
5(6)-Carboxyfluorescein [Example 4] | 9.7 | 
FAM-KKRTLRKNDRKKR-CONH2 ({FAM}-KKRTLRKNDRKKR-NH2) [Example 2] | 24 | 
FAM-TLKERCLQVVRSLVKKKRTLRKNDRKKR-CONH2 ({FAM}-TLKERCLQVVRSLVKKKRTLRKNDRKKR-NH2) [Example 1] | 8.2 × 10^2 | the best
RXRRBRRXRYQFLIRXRBRXRB-FAM (R[Ahx]RR[βAla]RR[Ahx]RYQFLIR[Ahx]R[βAla]R[Ahx]R[βAla]-{FAM}) [Example 3, X aminohexanoic acid, B β-alanine] | 4.0 × 10^2 | 
